Data from patent publication US9650339B2, “Inhibitors of histone demethylases” (Gilead Sciences, Inc., priority 2013, dated 2017).

Assays:
KDM2B (FBXL10) = biological target: T1, KDM2B (FBXL10) (Homo sapiens, UniProt Q8NHM5); assay: Histone lysine demethylase AlphaLISA assay, KDM2B; assay type: biochemical; conditions: read-out: KDM2B HDME Inhibition IC50
T1 sequence (Q8NHM5 1-650): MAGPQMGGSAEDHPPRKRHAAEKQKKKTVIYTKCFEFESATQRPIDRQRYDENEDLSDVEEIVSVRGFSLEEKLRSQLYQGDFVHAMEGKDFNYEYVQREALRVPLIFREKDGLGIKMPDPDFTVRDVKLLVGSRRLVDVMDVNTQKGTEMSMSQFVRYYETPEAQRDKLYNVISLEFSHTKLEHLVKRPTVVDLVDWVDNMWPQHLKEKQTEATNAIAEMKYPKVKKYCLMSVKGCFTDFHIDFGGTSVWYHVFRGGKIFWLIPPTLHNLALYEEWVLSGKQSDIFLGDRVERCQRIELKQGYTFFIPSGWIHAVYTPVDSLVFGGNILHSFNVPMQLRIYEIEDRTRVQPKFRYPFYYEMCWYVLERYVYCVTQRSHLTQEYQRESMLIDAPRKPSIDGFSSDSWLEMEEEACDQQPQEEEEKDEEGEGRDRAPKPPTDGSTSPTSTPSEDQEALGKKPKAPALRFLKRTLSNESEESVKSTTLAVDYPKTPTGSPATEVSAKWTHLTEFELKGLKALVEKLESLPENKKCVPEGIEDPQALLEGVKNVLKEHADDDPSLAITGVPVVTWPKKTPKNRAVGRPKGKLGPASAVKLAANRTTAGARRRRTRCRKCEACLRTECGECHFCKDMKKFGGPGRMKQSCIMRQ
Summary of the method: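 Steps: enzyme equilibrated 10 min in buffer; compounds in 3% DMSO solution added, 10 min; substrate mix added (peptide, 25 μM L-Asc, 10 μM α-KG), room temperature; acceptor beads, then streptavidin donor beads, dark incubations; plate read.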

MCF7 cells = assay: Cell proliferation assay MCF7; assay type: cell-based; conditions: MCF7 human breast cancer cells; 120 hours; ATPlite 1 Step
Summary of the method: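 Cells grown 24 h in DMEM GlutaMAX/10% FBS, then exposed to compounds in duplicate (≤0.5% DMSO) for 120 h. Viability read as ATP luminescence (ATPlite 1 Step). Seeding set to reach ~90% confluence at harvest.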

KDM4A = biological target: T2, KDM4A (Homo sapiens, UniProt O75164); assay: Histone lysine demethylase immunofluorescence assay, U2OS cells transfected with KDM4A; assay type: cell-based; conditions: U2OS cells transfected with pCMVHA KDM4A; mark detected H3K9me3; 20 hours
T2 construct: Full length; host or cells: U2OS
T2 sequence (O75164 1-1064): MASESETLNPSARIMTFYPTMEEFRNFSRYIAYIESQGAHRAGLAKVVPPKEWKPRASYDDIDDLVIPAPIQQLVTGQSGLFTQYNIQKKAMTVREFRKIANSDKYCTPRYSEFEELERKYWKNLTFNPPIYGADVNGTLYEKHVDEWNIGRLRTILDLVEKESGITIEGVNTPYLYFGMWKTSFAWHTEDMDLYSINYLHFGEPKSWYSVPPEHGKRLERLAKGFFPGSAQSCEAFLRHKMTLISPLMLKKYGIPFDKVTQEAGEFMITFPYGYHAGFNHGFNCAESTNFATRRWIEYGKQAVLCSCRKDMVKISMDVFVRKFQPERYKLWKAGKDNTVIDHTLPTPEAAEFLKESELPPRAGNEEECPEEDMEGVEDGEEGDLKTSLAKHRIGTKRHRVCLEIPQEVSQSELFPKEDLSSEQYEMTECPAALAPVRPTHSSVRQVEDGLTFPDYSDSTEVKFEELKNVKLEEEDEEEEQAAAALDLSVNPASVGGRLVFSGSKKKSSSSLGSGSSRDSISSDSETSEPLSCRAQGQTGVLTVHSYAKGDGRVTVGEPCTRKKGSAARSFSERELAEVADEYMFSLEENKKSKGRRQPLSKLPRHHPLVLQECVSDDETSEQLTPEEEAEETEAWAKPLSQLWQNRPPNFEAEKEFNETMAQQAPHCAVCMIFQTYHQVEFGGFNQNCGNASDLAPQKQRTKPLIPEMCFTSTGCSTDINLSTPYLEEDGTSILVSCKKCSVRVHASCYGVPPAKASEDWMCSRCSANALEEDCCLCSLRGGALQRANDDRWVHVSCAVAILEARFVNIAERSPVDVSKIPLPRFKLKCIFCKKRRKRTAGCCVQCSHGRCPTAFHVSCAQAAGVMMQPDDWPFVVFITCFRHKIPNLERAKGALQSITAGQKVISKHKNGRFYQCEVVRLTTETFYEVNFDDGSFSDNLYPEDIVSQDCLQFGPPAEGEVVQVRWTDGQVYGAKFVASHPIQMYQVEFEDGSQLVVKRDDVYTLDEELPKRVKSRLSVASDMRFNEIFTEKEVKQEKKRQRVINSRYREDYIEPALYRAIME
Protocol: U2OS cells were seeded 24 hours before transfection. Transfection was performed with Fugene HD transfection reagent as recommended by the manufacturer. 6 hours after transfection, the cells were harvested and seeded into multi well plates into media containing compound. The media used was DMEM containing 10% FBS and pen/strep. 20 hours after incubation of cells with compounds, the cells were washed in PBS, harvested by fixation with formaldehyde 4% aqueous solution, and washed in PBS. Subsequently, the cells were permeabilized in PBS with 0.2% Triton X-100 for. Blocking was performed in PBS with 0.2% Triton X-100 and 5% FBS. The cells were incubated with primary antibodies in blocking solution over night at 4° C. The primary antibodies used in the assays were HA.11 (Covance, MMS-101P) and the antibody detecting the mark specified in the table below. After incubation with primary antibodies, the cells were washed with PBS, incubated with secondary antibodies (Alexa fluor 594 goat anti rabbit IgG, Invitrogen, A11012; Alexa flour 488 donkey anti mouse IgG, Invitrogen, A21202) and Hoechst, (Sigma, 33342) in blocking solution, and washed again with PBS. Finally, PBS was added and high throughput imaging and analysis were performed by an IN Cell Analyzer 1000 (GE Healthcare). The robot software analyzed individual cells and divided these into HA+ (transfected cells) and HA− (non-transfected cells). The IC50 values were based on an average measure of the staining of the mark specified in the table below in the transfected cells.

| Compound | IC50 (KDM2B (FBXL10)) [µM] | EC50 (MCF7 cells) [µM] | IC50 (KDM4A) [µM] |
| --- | --- | --- | --- |
| CN(C)CCCCNCc1cc(CN)ccn1 [Compound 2, [2-({[4-(dimethylamino)butyl]-amino}methyl)pyridin-4-yl]methanamine] | > 2.5 | < 0.25 |  |
| CN(C)CCNCc1ccnc(CNCCCN(C)Cc2ccccc2)c1 [Compound 18, benzyl[3-({[4-({[2-(dimethylamino)ethyl]-amino}methyl)pyridin-2-yl]methyl}-amino)propyl]-methylamine] | > 2.5 |  |  |
| COCCNCc1ccnc(CNCCCN(C)Cc2ccccc2)c1 [Compound 19, benzyl(3-{[(4-{[(2-methoxyethyl)amino]-methyl}pyridin-2-yl)methyl]amino}-propyl)methylamine] | > 2.5 |  |  |
| COc1ccccc1CN1CCC(NC(=O)CNCc2cc(CNC3CC3)ccn2)CC1 [Compound 20, 2-[({4-[(cyclopropylamino)-methyl]pyridin-2-yl}methyl)amino]-N-{1-[(2-methoxyphenyl)methyl]-piperidin-4-yl}acetamide] | > 2.5 |  | > 2.5 |

Now from value to compound:

| IC50 (KDM2B (FBXL10)) [µM] | EC50 (MCF7 cells) [µM] | IC50 (KDM4A) [µM] | Compound |
| --- | --- | --- | --- |
|  | < 0.25 |  | CCN(CCN(C)C)C(=O)CN(Cc1cc(CNC(=O)C(F)(F)F)ccn1)C(=O)C(F)(F)F [Compound 26, N-[(2-{[N-({[2-(dimethylamino)ethyl]-(ethyl)carbamoyl}-methyl)-2,2,2-trifluoroacetamido]-methyl}pyridin-4-yl)methyl]-2,2,2-trifIuoroacetamide] |
|  | < 0.25 |  | CCN(CC)CCCCNCc1cc(C2NCCCN2C)ccn1 (stereo not drawn) [Compound 68, [4-(diethylamino)butyl]({[4-(1-methyl-1,3-diazinan-2-yl)pyridin-2-yl]methyl})amine] |
|  |  | > 2.5 | O=Cc1ccnc(CNCCCCN(Cc2ccccc2)C2CC2)c1 [Compound 109, 2-[({4-[benzyl-(cyclopropyl)amino]-butyl}amino)methyl]-pyridine-4-carbaldehyde] |
